Data published in PubChem BioAssay AID1745844 (Carcinogenic Potency Database (CPDB), 2022).
Calls of active or inactive are those of the source. How the calls were made is not given here.

System: rodent lifetime carcinogenesis bioassay, tumor incidence TD50
Experiment: chronic cancer bioassays in animals – CPDB, compiled studies (AID 1745844)

O=[N+]([O-])OCC(CO[N+](=O)[O-])O[N+](=O)[O-]
TD50 (rat, strain Charles River CD (Sprague-Dawley), females, in feed, site: liver, lesion: several types, types named in the paper, dosed 104 weeks, study length 104 weeks): 329 mg/kg/day | TD50 (rat, strain Charles River CD (Sprague-Dawley), males, in feed, site: liver, lesion: several types, types named in the paper, dosed 104 weeks, study length 104 weeks): 221 mg/kg/day | TD50 (rat, strain Charles River CD (Sprague-Dawley), males, in feed, site: testis, lesion: interstitial-cell tumor, dosed 104 weeks, study length 104 weeks): 405 mg/kg/day | TD50 (rat, strain Fischer 344, males, in feed, site: liver, lesion: cholangiocarcinoma, dosed 70 weeks, study length 70 weeks): 681 mg/kg/day | TD50 (rat, strain Fischer 344, males, in feed, site: liver, lesion: cholangiocarcinoma, dosed 76 weeks, study length 76 weeks): 509 mg/kg/day | TD50 (rat, strain Fischer 344, males, in feed, site: liver, lesion: cholangioma, dosed 76 weeks, study length 76 weeks): 211 mg/kg/day | TD50 (rat, strain Fischer 344, males, in feed, site: liver, lesion: hepatocellular adenoma, dosed 70 weeks, study length 70 weeks): 179 mg/kg/day | TD50 (rat, strain Fischer 344, males, in feed, site: liver, lesion: hepatocellular adenoma, dosed 76 weeks, study length 76 weeks): 106 mg/kg/day | TD50 (rat, strain Fischer 344, males, in feed, site: liver, lesion: several types, types named in the paper, dosed 70 weeks, study length 70 weeks): 113 mg/kg/day | carcinogen call (rat, strain Fischer 344, males, in feed, site: liver, lesion: several types, types named in the paper, dosed 76 weeks, study length 76 weeks): positive

ClCOCCCCCCOCCl
carcinogen call (mouse, strain Ha/ICR, females, i.p., site: abdomen, lesion: sarcoma, dosed 81 weeks, study length 81 weeks): negative (inactive)

NC(=O)c1cccnc1
carcinogen call (mouse, strain Swiss albino, females, in drinking water, site: lung, lesion: several types, types named in the paper, dosed 113 weeks, study length 113 weeks): negative (inactive) | carcinogen call (mouse, strain Swiss albino, males, in drinking water, site: lung, lesion: several types, types named in the paper, dosed 109 weeks, study length 109 weeks): negative (inactive)
